{"source": "ChEMBL document CHEMBL1201862", "about": "“PubChem BioAssay data set” (2004)", "key": {"[1]": {"assay": "Luminescence Cell-Based Dose Confirmation HTS to Identify Inhibitors of Platelet Dense Granule Release. [Related pubchem assays: 1663 (Primary HTS), 1678 (Summary of Project)]", "assay_type": "functional"}, "[2]": {"molecular_target": "Luciferin 4-monooxygenase (Photinus pyralis, UniProt P08659)", "sequence (P08659 whole entry)": "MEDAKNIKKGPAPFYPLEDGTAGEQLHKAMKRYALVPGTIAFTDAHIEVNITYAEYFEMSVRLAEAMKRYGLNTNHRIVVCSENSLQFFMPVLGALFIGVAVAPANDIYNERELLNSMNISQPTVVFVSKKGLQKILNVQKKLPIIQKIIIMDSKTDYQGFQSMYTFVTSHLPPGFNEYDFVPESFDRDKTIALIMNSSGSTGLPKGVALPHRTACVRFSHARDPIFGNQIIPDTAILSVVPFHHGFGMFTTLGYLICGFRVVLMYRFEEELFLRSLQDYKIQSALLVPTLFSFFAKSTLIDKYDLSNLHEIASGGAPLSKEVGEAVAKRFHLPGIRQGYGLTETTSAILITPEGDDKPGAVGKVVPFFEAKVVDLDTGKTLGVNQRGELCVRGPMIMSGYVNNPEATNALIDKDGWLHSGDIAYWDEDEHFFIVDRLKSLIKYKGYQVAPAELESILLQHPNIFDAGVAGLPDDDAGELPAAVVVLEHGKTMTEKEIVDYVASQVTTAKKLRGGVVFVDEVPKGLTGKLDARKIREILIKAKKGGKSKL", "assay": "firefly luciferase enzyme inhibitors, dose response, biochemical, luminescence (AID 1891)"}, "[3]": {"assay": "Luminescence Cell-Based Dose Response HTS to Identify Inhibitors of 5'UTR Stem-Loop Driven Prion Protein mRNA Translation in H4 Neuroglioblastoma Cells. [Related pubchem assays: 1827 (Project Summary), 1813 (Primary HTS)]", "assay_type": "functional"}, "[4]": {"assay": "inhibitors of SNCA 5'UTR-driven reporter translation, confirmation, H4 neuroglioma cells, luminescence (AID 1988)", "assay_type": "functional, cell-based"}, "[5]": {"assay": "inhibitors of firefly luciferase expression or activity, dose response, H4 neuroglioma cells, luminescence (AID 1990)", "assay_type": "functional, cell-based"}, "[6]": {"molecular_target": "Voltage-dependent T-type calcium channel subunit alpha-1H (Homo sapiens, UniProt O95180)", "assay_type": "functional"}, "[7]": {"assay": "Luminescence Cell-Based Dose Retest to Confirm Inhibitors of Cancer Stem Cells. [Related pubchem assays (depositor defined):AID2717, AID2721]", "assay_type": "functional", "conditions": "Homo sapiens"}, "[8]": {"assay": "microbe, parasite or virus in culture", "assay_type": "functional", "conditions": "Mycobacterium tuberculosis"}, "[9]": {"assay": "HEp-2 cell cytotoxicity, dose response, cytotoxicity control for RSV inhibitor project, HTS (AID 2410)", "assay_type": "functional", "conditions": "human respiratory syncytial virus"}, "[10]": {"molecular_target": "T1, Calpain-2 catalytic subunit (Sus scrofa, UniProt P43367)", "T1 sequence (P43367 whole entry)": "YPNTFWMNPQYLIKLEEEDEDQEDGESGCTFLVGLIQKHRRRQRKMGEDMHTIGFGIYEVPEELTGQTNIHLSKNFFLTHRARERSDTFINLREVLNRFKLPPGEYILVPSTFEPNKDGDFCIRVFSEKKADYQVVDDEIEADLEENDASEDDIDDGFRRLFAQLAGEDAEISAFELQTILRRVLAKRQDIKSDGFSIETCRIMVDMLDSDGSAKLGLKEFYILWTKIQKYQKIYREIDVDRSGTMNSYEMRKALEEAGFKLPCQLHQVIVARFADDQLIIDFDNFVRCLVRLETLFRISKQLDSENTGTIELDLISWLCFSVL", "assay": "pig calpain II inhibitor potency, dose response, biochemical, fluorogenic peptide substrate (AID 1420)", "assay_type": "functional"}, "[11]": {"assay": "growth suppression of PTEN-null colon cells, dose response, cell-based, HCT116 PTEN knockout (AID 1047);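 note: HCT116 colon tumor cells with PTEN knocked out; cells exposed to compound for 60 hours before readout; potency for loss of cell viability measured by luminescence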", "assay_type": "functional"}, "[12]": {"assay": "growth suppression of beta-catenin-knockout colon cells, dose response, cell-based, HCT116, human colon tumor (AID 1045);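 note: HCT116 colon tumor cells with beta catenin knocked out; cells exposed to compound for 60 hours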", "assay_type": "functional"}, "[13]": {"assay": "NIH-3T3 fibroblast cytotoxicity, dose response, cytotoxicity control, cell-based, fluorescence, Alamar Blue, secondary assay (AID 2327);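 note: NIH-3T3 mouse fibroblasts cultured with fluconazole at 8 µg/mL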", "assay_type": "functional"}, "[14]": {"molecular_target": "T2, Fatty acid synthase (Homo sapiens, UniProt P49327)", "T2 sequence (P49327 whole entry, the tested form may be a part)": "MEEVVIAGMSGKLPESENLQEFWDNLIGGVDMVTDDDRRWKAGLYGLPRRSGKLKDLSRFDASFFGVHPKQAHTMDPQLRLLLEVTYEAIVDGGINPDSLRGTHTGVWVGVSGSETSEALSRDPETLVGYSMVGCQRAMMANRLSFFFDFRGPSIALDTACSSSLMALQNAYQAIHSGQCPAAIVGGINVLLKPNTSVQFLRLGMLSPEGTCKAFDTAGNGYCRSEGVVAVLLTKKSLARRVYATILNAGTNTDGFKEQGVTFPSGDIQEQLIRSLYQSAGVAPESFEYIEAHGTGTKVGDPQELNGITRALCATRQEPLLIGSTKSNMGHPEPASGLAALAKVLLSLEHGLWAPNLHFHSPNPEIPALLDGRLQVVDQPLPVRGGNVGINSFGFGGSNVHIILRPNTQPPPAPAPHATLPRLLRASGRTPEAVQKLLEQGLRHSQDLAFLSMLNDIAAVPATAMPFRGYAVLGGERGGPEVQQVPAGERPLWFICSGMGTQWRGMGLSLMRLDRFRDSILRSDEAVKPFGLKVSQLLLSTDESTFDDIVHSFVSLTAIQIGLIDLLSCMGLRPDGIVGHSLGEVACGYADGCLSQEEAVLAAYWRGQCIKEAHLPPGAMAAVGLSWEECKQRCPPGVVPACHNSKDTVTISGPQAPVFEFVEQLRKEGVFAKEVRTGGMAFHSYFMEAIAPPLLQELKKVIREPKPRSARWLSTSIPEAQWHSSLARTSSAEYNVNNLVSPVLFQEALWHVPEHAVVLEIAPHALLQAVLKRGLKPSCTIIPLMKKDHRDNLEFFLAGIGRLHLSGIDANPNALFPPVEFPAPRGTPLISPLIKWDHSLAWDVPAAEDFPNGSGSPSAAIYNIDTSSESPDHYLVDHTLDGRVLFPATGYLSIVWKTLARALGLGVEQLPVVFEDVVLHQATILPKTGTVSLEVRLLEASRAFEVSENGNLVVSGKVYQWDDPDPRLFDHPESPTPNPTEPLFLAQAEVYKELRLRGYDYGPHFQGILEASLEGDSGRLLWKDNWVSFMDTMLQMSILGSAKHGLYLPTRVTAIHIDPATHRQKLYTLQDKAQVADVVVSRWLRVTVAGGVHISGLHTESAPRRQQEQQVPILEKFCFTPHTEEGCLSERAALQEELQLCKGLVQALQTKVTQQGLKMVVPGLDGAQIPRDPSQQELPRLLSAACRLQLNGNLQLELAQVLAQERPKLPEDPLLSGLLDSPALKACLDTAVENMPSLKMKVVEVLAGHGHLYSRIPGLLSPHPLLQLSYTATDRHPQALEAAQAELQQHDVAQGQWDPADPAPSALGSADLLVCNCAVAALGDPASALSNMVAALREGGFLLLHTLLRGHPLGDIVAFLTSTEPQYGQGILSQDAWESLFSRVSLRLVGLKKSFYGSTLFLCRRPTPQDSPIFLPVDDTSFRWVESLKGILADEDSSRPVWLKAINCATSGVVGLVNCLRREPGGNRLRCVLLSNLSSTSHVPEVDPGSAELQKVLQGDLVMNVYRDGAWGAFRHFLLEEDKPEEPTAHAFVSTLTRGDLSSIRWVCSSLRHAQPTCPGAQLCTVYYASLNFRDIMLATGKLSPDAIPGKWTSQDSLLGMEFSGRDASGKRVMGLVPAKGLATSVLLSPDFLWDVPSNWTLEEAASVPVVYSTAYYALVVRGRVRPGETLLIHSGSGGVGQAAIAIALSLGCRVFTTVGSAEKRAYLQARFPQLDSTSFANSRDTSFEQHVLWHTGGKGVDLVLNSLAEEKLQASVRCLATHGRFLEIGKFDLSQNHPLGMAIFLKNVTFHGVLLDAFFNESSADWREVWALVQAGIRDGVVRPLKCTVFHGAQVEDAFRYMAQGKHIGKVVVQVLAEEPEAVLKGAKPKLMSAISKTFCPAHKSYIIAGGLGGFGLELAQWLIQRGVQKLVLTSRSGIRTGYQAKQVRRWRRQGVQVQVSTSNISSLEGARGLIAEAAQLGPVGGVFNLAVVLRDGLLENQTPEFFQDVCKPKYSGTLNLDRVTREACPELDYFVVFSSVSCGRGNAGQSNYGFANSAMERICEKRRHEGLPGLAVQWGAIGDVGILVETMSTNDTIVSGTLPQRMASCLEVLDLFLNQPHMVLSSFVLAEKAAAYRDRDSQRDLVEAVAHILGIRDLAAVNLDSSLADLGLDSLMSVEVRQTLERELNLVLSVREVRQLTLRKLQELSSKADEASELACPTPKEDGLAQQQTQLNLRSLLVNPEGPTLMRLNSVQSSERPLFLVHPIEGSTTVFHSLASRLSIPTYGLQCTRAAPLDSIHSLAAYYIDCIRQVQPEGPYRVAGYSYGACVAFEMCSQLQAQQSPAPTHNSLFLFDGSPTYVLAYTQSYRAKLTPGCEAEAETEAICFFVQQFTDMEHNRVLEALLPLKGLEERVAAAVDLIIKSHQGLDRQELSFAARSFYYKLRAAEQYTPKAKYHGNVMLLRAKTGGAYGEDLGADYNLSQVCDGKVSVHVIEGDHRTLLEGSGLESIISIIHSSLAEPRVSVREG", "assay": "FAS thioesterase domain inhibitors, dose response, biochemical, kinetic fluorescence intensity (AID 624326);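 note: rate of fluorescence rise from hydrolysis of a fluorogenic O-methyl fluorescein ester substrate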", "assay_type": "functional"}, "[15]": {"molecular_target": "T2, Fatty acid synthase", "assay": "FAS thioesterase domain inhibitors, dose response, biochemical, endpoint fluorescence intensity, uHTS hits (AID 624327);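 note: fluorescence from hydrolysis of an O-methyl fluorescein acyl ester substrate by the enzyme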", "assay_type": "functional"}}, "note": "The source made the active and inactive calls.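 Throughout, for AC50: cells exposed to compound for roughly 70 hours or longer before luminescence read.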"}
{"compound": "Cc1ccccc1C(=O)NC1CCN(C(=O)N2CCOCC2)CC1", "values": [{"measurement": "EC50", "setting": "[1]", "value": "> 112 µM (not active)"}, {"measurement": "EC50", "setting": "[2]", "value": "> 112 µM (not active)"}]}
{"compound": "COCCNc1nc(N)c([N+](=O)[O-])c(NC2CCCCC2)n1", "values": [{"measurement": "EC50", "setting": "[3]", "value": "> 120 µM (not active)"}, {"measurement": "EC50", "setting": "[4]", "value": "77.7 µM (active)"}, {"measurement": "EC50", "setting": "[5]", "value": "16.2 µM (active)"}]}
{"compound": "Cc1cc(C)c(NC(=O)C(C)c2cccc(C(=O)c3ccccc3)c2)c(C)c1", "note": "(stereo not drawn)", "values": [{"measurement": "EC50", "setting": "[6]", "value": "3.26 µM (active)"}]}
{"compound": "COc1ccc(-c2nc(C[S+]([O-])CC(=O)NC3CCCCC3C)c(C)o2)cc1", "note": "(stereo not drawn)", "values": [{"measurement": "EC50", "setting": "[1]", "value": "> 112 µM (not active)"}, {"measurement": "EC50", "setting": "[2]", "value": "> 112 µM (not active)"}]}
{"compound": "Cc1cc(N2CCN(c3ccc(C(F)(F)F)cc3[N+](=O)[O-])CC2)c2ccccc2n1", "values": [{"measurement": "AC50", "setting": "[7]", "value": "0.726 µM (active)"}, {"measurement": "CC50", "setting": "[8]", "value": "> 40 µM (active)"}]}
{"compound": "CC(C)c1ccc(NC(S)=NC2CCN(Cc3ccccc3)CC2)cc1", "values": [{"measurement": "EC50", "setting": "[1]", "value": "> 112 µM (not active)"}, {"measurement": "EC50", "setting": "[2]", "value": "> 112 µM (not active)"}, {"measurement": "CC50", "setting": "[9]", "value": "20.6 µM (active)"}]}
{"compound": "CCN(CC(O)Cn1c2ccccc2c2ccccc21)S(=O)(=O)c1ccc(C)cc1", "note": "(stereo not drawn)", "values": [{"measurement": "IC50", "setting": "[10]", "value": "2.61 µM (not active)"}]}
{"compound": "CCOC(=O)N1CCN(Cc2cc(=O)oc3cc4c(cc23)CCC4)CC1", "values": [{"measurement": "EC50", "setting": "[1]", "value": "> 112 µM (not active)"}, {"measurement": "EC50", "setting": "[2]", "value": "> 112 µM (not active)"}]}
{"compound": "COc1ccc(/C=N/OCC(=O)Nc2ccc3c(c2)OCO3)c(OC)c1", "values": [{"measurement": "IC50", "setting": "[10]", "value": "> 50 µM (not active)"}]}
{"compound": "Cc1snc(S(=O)(=O)/C(C#N)=N/Nc2cccc(C(F)(F)F)c2)c1C#N", "values": [{"measurement": "EC50", "setting": "[6]", "value": "7.53 µM (active)"}]}
{"compound": "CCO/C(O)=C1\\C(C)=NC(SCC(=O)Nc2nc(C)cs2)=C(C#N)C1c1cccs1", "note": "(stereo not drawn)", "values": [{"measurement": "EC50", "setting": "[11]", "value": "14.5 µM (active)"}, {"measurement": "EC50", "setting": "[12]", "value": "16.6 µM (active)"}, {"measurement": "CC50", "setting": "[8]", "value": "> 40 µM (active)"}]}
{"compound": "O=C(CCCN1C(=O)c2ccccc2C1=O)C1=C(NCCO)CC(c2ccccc2)CC1=O", "note": "(stereo not drawn)", "values": [{"measurement": "IC50", "setting": "[10]", "value": "30.4 µM (not active)"}, {"measurement": "EC50", "setting": "[13]", "value": "> 150 µM (inactive)"}]}
{"compound": "O=C(N/C(=C/C=C\\c1ccccc1)C(=O)N1CCOCC1)c1ccc(Br)cc1", "values": [{"measurement": "EC50", "setting": "[3]", "value": "> 120 µM (not active)"}, {"measurement": "EC50", "setting": "[4]", "value": "> 120 µM (not active)"}, {"measurement": "EC50", "setting": "[5]", "value": "> 120 µM (not active)"}, {"measurement": "IC50", "setting": "[14]", "value": "7.63 µM (active)"}, {"measurement": "IC50", "setting": "[15]", "value": "7.92 µM (active)"}]}
